From ChEMBL document CHEMBL4400546, “A Cinchona Alkaloid Antibiotic That Appears To Target ATP Synthase in Streptococcus pneumoniae” (J Med Chem, 2019)

Key:
Streptococcus pneumoniae = test: Antibacterial activity against Streptococcus pneumoniae D39 after 20 hrs by CLSI-based microdilution method; type: functional; conditions: D39, 20 h
[1] = Cytotoxicity against human HepG2 cells assessed as reduction in cell viability after 48 hrs by Alamar Blue assay; type: cell-based
[2] = Drug level in ICR mouse liver microsomes treated with 6-Cyclobutoxy-(R)-4-[((1S,2S,4S,5Z)-5-ethylidene-1-azabicyclo-[2.2.2]octan-2-yl)hydroxymethyl]quinoline at 10 uM preincubated with NADPH for 10 mins and measured after 90 mins by LC-MS/MS analysis; type: ADME, Microsome; conditions: 1.5 h
[3] = Drug level in ICR mouse liver microsomes treated with 6-Cyclobutoxy-(R)-4-[((1S,2S,4S,5E)-5-ethylidene-1-azabicyclo[2.2.2]octan-2-yl)hydroxymethyl]quinoline at 10 uM preincubated with NADPH for 10 mins and measured after 90 mins by LC-MS/MS analysis; type: ADME, Microsome; conditions: 1.5 h

| SMILES | MIC (Streptococcus pneumoniae) | CC50 at 48 h [1] [µM] | Drug uptake [2] | Drug uptake [3] |
| --- | --- | --- | --- | --- |
| COc1ccc2nccc([C@@H](O)[C@@H]3C[C@@H]4CC[N@@]3C/C4=N/O)c2c1 | > 391 µM | > 100 |  |  |
| CCCCON=C1C[N@]2CC[C@H]1C[C@H]2[C@H](O)c1ccnc2ccc(OC)cc12 | 21 to 42 µM | > 100 |  |  |
| CC=C1C[N@]2CC[C@H]1C[C@@H]2[C@@H](O)c1ccnc2ccc(OC)cc12 | > 395 µM | > 100 |  |  |
| CC=C1C[N@]2CC[C@H]1C[C@@H]2[C@H](F)c1ccnc2ccc(OC)cc12 | 392 µM | > 100 |  |  |
| COc1ccc2nccc([C@@H](O)[C@@H]3C[C@@H]4CC[N@@]3C/C4=N/OCC3CC3)c2c1 | 42 to 84 µM | > 100 |  |  |
| CCCCOc1ccc2nccc([C@@H](O)[C@@H]3C[C@@H]4CC[N@@]3C[C@@H]4CC)c2c1 | 22 µM | 41 |  |  |
| CC=C1C[N@]2CC[C@H]1C[C@H]2[C@H](O)c1ccnc2ccc(OC(C)CO)cc12 (mixture of isomers) | 5 µM | > 100 |  |  |
| CC=C1C[N@]2CC[C@H]1C[C@H]2[C@H](O)c1ccnc2ccc(OCC(F)(F)F)cc12 | 5 µM | > 100 |  |  |
| CC=C1C[N@]2CC[C@H]1C[C@H]2[C@H](O)c1ccnc2ccc(OCC3CC3)cc12 | 5 µM | > 100 |  |  |
| CC[C@H]1C[N@]2CC[C@H]1C[C@H]2[C@H](O)c1ccnc2ccc(OCC(F)(F)F)cc12 | 10 µM | 72 |  |  |
| CCCO/N=C1/C[N@]2CC[C@H]1C[C@H]2[C@H](O)c1ccnc2ccc(OC)cc12 | 86 µM | > 100 |  |  |
| C=CCON=C1C[N@]2CC[C@H]1C[C@H]2[C@H](O)c1ccnc2ccc(OC)cc12 | 174 µM | 51 |  |  |
| C=CCOc1ccc2nccc([C@@H](O)[C@@H]3C[C@@H]4CC[N@@]3C[C@@H]4CC)c2c1 | 11 to 22 µM | 78 |  |  |
| COc1ccc2nccc([C@@H](O)[C@@H]3C[C@@H]4CC[N@@]3CC4=NOCc3ccccc3)c2c1 | 77 µM | > 100 |  |  |
| CC[C@H]1C[N@]2CC[C@H]1C[C@@H]2[C@H](F)c1ccnc2ccc(OC)cc12 | > 390 µM | > 100 |  |  |
| CCON=C1C[N@]2CC[C@H]1C[C@H]2[C@H](O)c1ccnc2ccc(OC)cc12 | 360 µM | > 100 |  |  |
| CC[C@H]1C[N@]2CC[C@H]1C[C@H]2[C@H](O)c1ccnc2ccc(OC3CCC3)cc12 | 5 µM | 51 |  |  |
| C=C[C@H]1C[N@@]2CC[C@H]1C[C@H]2[C@H](O)c1ccnc2ccc(OC)cc12 [QUININE] |  | > 100 |  |  |
| CC=C1C[N@]2CC[C@H]1C[C@H]2[C@H](O)c1ccnc2ccc(OC3CCCC3)cc12 | 5 µM | 48 |  |  |
| CC[C@H]1C[N@]2CC[C@H]1C[C@H]2[C@H](O)c1ccnc2ccc(OCC3CC3)cc12 | 22 µM | 87 |  |  |
| OC/C=C1\C[N@]2CC[C@H]1C[C@H]2[C@H](O)c1ccnc2ccc(OC3CCC3)cc12 |  |  | Active | Active |
| CC=CC1C[N@]2CC[C@H]1C[C@H]2[C@H](O)c1ccnc2ccc(OC)cc12 (stereo partly drawn) | 12 µM | > 100 |  |  |
| C/C=C1\C[N@]2CC[C@H]1C[C@H]2[C@H](O)c1ccnc2ccc(O[C@H]3O[C@H](C(=O)O)[C@@H](O)[C@H](O)[C@H]3O)cc12 |  |  | Active | Active |
| C=C[C@H]1CN2CC[C@@H]1C[C@H](F)[C@H]2c1ccnc2ccc(OC)cc12 | 392 µM | > 100 |  |  |
| CC[C@H]1C[N@]2CC[C@H]1C[C@H]2[C@H](O)c1ccnc2ccc(OC(C)C)cc12 | 11 µM | 86 |  |  |
| CC[C@H]1C[N@]2CC[C@H]1C[C@H]2[C@H](O)c1ccnc2ccc(OCc3ccccc3)cc12 | 16 to 32 µg/mL | 76 |  |  |

| SMILES | MIC (Streptococcus pneumoniae) | CC50 at 48 h [1] [µM] | Drug uptake [2] | Drug uptake [3] |
| --- | --- | --- | --- | --- |
| COc1ccc2nccc([C@@H](O)[C@@H]3C[C@@H]4CC[N@@]3CC4=NOC3CCC3)c2c1 | 84 µM | > 100 |  |  |
| COc1ccc2nccc([C@@H](O)[C@@H]3C[C@@H]4CC[N@@]3C[C@@H]4[C@H](O)CO)c2c1 | > 357 µM | > 100 |  |  |
| CC=C1C[N@]2CC[C@H]1C[C@H]2[C@@H](F)c1ccnc2ccc(OC)cc12 | > 392 µM | > 100 |  |  |
| CON=C1C[N@]2CC[C@H]1C[C@H]2[C@H](O)c1ccnc2ccc(OC)cc12 | 375 to 750 µM | > 100 |  |  |
| C=CCOc1ccc2nccc([C@@H](O)[C@@H]3C[C@@H]4CC[N@@]3CC4=CC)c2c1 | 4 µM | 54 |  |  |
| CCOC(=O)CCCON=C1C[N@]2CC[C@H]1C[C@H]2[C@H](O)c1ccnc2ccc(OC)cc12 | 299 µM | > 100 |  |  |
| C/C=C1\C[N@]2CC[C@H]1C[C@H]2C(=O)c1ccnc2ccc(O)cc12 |  |  | Active | Active |
| COc1ccc2nccc([C@@H](O)[C@@H]3C[C@@H]4CC[N@@]3C/C4=N/OC(C)C)c2c1 | 43 to 86 µM | > 100 |  |  |
| COc1ccc2nccc([C@@H](O)[C@@H]3C[C@@H]4CC[N@@]3CC4=NOCC(F)(F)F)c2c1 | > 313 µM | > 100 |  |  |
| CC=C1C[N@]2CC[C@H]1C[C@H]2[C@H](O)c1ccnc2ccc(OCC)cc12 | 1 µM | > 100 |  |  |
| CC[C@H]1C[N@]2CC[C@H]1C[C@H]2[C@H](O)c1ccnc2ccc(OC3CCCC3)cc12 | 5 µM | > 100 |  |  |
| CC=C1C[N@]2CC[C@H]1C[C@H]2[C@H](O)c1ccnc2ccc(OC)cc12 | 12 µM | > 100 |  |  |
| CC=C1C[N@]2CC[C@H]1C[C@H]2[C@H](O)c1ccnc2ccc(OCCCC)cc12 | 11 µM | 27 |  |  |
| C#CCON=C1C[N@]2CC[C@H]1C[C@H]2[C@H](O)c1ccnc2ccc(OC)cc12 | 175 µM | > 100 |  |  |
| COC(=O)CCCON=C1C[N@]2CC[C@H]1C[C@H]2[C@H](O)c1ccnc2ccc(OC)cc12 | 299 µM | > 100 |  |  |
| CC=C1C[N@]2CC[C@H]1C[C@H]2[C@H](O)c1ccnc2ccc(OCc3ccccc3)cc12 | 40 µM | 47 |  |  |
| C/C=C1\CN2CC[C@H]1C[C@H]2[C@H](O)c1ccnc2ccc(O)cc12 |  |  | Active | Active |
| COc1ccc2nccc([C@@H](O)[C@@H]3C[C@@H]4CC[N@@]3CC4=O)c2c1 | > 410 µM | > 100 |  |  |
| CC[C@H]1CN2CC[C@H]1C[C@H]2[C@H](O)c1ccnc2ccc(OC)cc12 [HYDROQUININE] | 98 µM | > 100 |  |  |
| CC=C1C[N@]2CC[C@H]1C[C@H]2[C@H](O)c1ccnc2ccc(OC(C)C)cc12 | 1 µM | 54 |  |  |
| CC=C1C[N@]2CC[C@H]1C[C@H]2[C@H](O)c1ccnc2ccc(OCCC)cc12 | 3 to 6 µM | 51 |  |  |
| O=C(c1ccnc2ccc(OC3CCC3)cc12)[C@@H]1C[C@@H]2CC[N@@]1C/C2=C\CO |  |  | Active | Active |
| O=c1cc([C@@H](O)[C@@H]2C[C@@H]3CC[N@@]2C/C3=C\CO)c2cc(OC3CCC3)ccc2[nH]1 |  |  | Active | Active |
| CCCOc1ccc2nccc([C@@H](O)[C@@H]3C[C@@H]4CC[N@@]3C[C@@H]4CC)c2c1 | 11 µM | 57 |  |  |
| COc1ccc2nccc([C@@H](O)[C@@H]3C[C@@H]4CC[N@@]3C/C4=N/OC3CCCC3)c2c1 | 40 to 81 µM | > 100 |  |  |
| CC[C@H]1CN2CC[C@H]1C[C@H]2[C@H](O)c1ccnc2ccc(O)cc12 | 204 µM | > 100 |  |  |
